Test results: patent publication US6727244B2, “Mammalian metabolites of a tachykinin receptor antagonist” (Merck & Co., Inc., priority 2000, dated 2004)

Experiment: glucuronidation in liver microsomes from rats
Assay type: in vitro ADME
Details: rat liver microsomes, UDPGA, 37° C. for 60 min
Method: All liver microsomal and cytosolic fractions were prepared using the following procedure. Thawed livers were homogenized with 2 volumes of 50 mM Tris-buffer (pH 7.5) containing 1.15% KCl. For microsomal and cytosolic preparations, the homogenate was centrifuged for 20 min at 9,000×g and the resulting supernatant was centrifuged for 60 min at 105,000×g. The resulting cytosolic fractions were re-centrifuged at 105,000×g for 60 min. Fractions of cytosol were aliquoted into small tubes and stored at −70° C. Subsequently, the microsomal pellets were washed with 10 mM EDTA containing 1.15% KCl and were centrifuged at 105,000×g for 60 min. […] Protein concentrations were determined by a modified Lowry assay (Smith et al., 1985). The specific cytochrome P450 content in each microsomal preparation was measured as described by Omura and Sato, J. Biol. Chem. 239, 2370-2378 (1964).
The typical reaction mixture (500 μl) containing 10 mM MgCl2, 2% glycerol, 0.02% lubrol PX, 3 mM UDPGA, 1 mg liver microsomes, 50 mM bis-tris propane buffer (pH 8.5) and ˜10 or 25 μM compound (in 15 μl methanol) was incubated at 37° C. for 30-60 min. After incubation, the reactions were terminated by the addition of four volumes of acetonitrile and processed and analyzed by HPLC as mentioned above.

C[C@@H](O[C@H]1OCCN[C@H]1c1ccc(F)cc1)c1cc(C(F)(F)F)cc(C(F)(F)F)c1 [Metabolite M-1, (2R,3S)-2-[(1R)-1-[3,5-bis(trifluoromethyl)phenyl]ethoxy]-3-(4-fluorophenyl)morpholine]
conversion to the corresponding glucuronide: ~20%
